{"source": "ChEMBL document CHEMBL3580594", "about": "“Synthesis and biological evaluation of 4-substituted fluoronucleoside analogs for the treatment of hepatitis B virus infection” (J Med Chem, 2015)", "key": {"Rattus norvegicus": {"tested_on": "Rattus norvegicus", "assay": "In vivo drug metabolism in rat plasma sample assessed as 1-((2R,3S,4R,5R)-5-azido-3-fluoro-4-hydroxy-5-(hydroxymethyl)tetrahydrofuran-2-yl)-4-(2-hydroxycyclopropylamino)pyrimidin-2(1H)-one formation by LC-MS/MS analysis", "type": "ADME, organism-based"}, "Mus musculus": {"tested_on": "Mus musculus", "assay": "Toxicity in KM mouse assessed as micronucleus frequency in bone marrow polychromatic erythrocyte at 10 mg/kg, po single dose after 48 hrs (reference value: 1.20 +/- 0.45 %)", "type": "organism-based", "settings": "in vivo"}}, "data": [{"smiles": "[N-]=[N+]=N[C@]1(CO)O[C@@H](n2ccc(NC3CC3)nc2=O)[C@@H](F)[C@@H]1O", "values": [{"measurement": "Drug metabolism", "setting": "Rattus norvegicus", "result": "metabolite_detected"}, {"measurement": "Activity", "setting": "Mus musculus", "result": 1.4, "unit": "%"}]}]}
